Results taken from US8188059B2, “Compounds and methods for modulating expression of GCGR” (Isis Pharmaceuticals, Inc., priority 2006, dated 2012).
Strand notation (5' to 3'): a small letter for the sugar, then the base; units joined by * are phosphorothioate-linked, units joined directly phosphodiester-linked; [ ] holds rarer units or linkages, { } end groups; capitals alone tell only the bases. e = 2'-O-(2-methoxyethyl) (MOE); k = constrained ethyl (cEt); [5mC] = 5-methylcytosine; d = 2'-deoxy (DNA)

Key:
[1] = tested on: ApoB mRNA; test: ApoB mRNA in liver of Balb/c mice, single i.p. dose 8, 4, 2 or 1 μmol/kg, with ED50 (Example 28, Table 92); type: in vivo, mouse; conditions: ApoB mRNA in liver, single i.p. administration
Experimental: The short antisense compounds tested were ISIS 387462 and ISIS 398296. Each dose group consisted of four animals. A 5-10-5 MOE gapmer was used for a control treatment. Mice were sacrificed approximately 48 hours following the final dose. Liver tissue was collected for RNA isolation, and blood was collected for serum chemistry analyses. ApoB mRNA levels were measured by real-time PCR as described herein. ApoB mRNA levels were normalized to RNA levels as determined by RIBOGREEN, and are presented in Table 92 as percent inhibition relative to ApoB mRNA levels in saline-treated control animals.
At the 8 umol/kg dose, ApoB inhibition by the short antisense compounds was greater than observed with a 5-10-5 MOE gapmer at an equivalent dose. […] Triglycerides were reduced at the highest dose.

[2] = tested on: monkey GCGR mRNA; test: Antisense inhibition of GCGR in primary monkey hepatocytes, 25-200 nM (Example 21, Table 80); type: cell-based; conditions: relative to untreated control cells
Experimental: Additional short antisense compounds targeted to a GCGR nucleic acid were tested for their effects on monkey GCGR mRNA in vitro. Cultured primary monkey hepatocytes were treated as described herein with 25, 50, 100 or 200 nM of short antisense compound. After the treatment period, RNA was isolated from the cells and GCGR mRNA levels were measured by quantitative real-time PCR, as described herein. GCGR mRNA levels were adjusted according to total RNA content as measured by RIBOGREEN®. Results are presented in Table 80 as percent reduction in GCGR mRNA, relative to untreated control cells.

[3] = tested on: GCGR mRNA; test: Antisense inhibition of GCGR in HepG2 cells, 25-200 nM (Example 21, Table 79); type: cell-based, human; conditions: HepG2 cells, relative to untreated control cells
Experimental: Short antisense compounds targeted to a GCGR nucleic acid were tested for their effects on GCGR mRNA in vitro.
(§1) Cultured HepG2 cells at a density of 10000 cells per well in a 96-well plate were treated as described herein with 25, 50, 100 or 200 nM of antisense oligonucleotide. After the treatment period, RNA was isolated from the cells and GCGR mRNA levels were measured by quantitative real-time PCR, as described herein. GCGR mRNA levels were adjusted according to total RNA content as measured by RIBOGREEN®. Results are presented as percent reduction in GCGR mRNA, relative to untreated control cells.

[4] = tested on: PTP1B mRNA; test: Antisense inhibition of human PTP1B in HepG2 cells at 25 nM (Example 24, Table 85); type: cell-based
Experimental: as §1, with “Short antisense compounds targeted to a PTP1B nucleic acid were tested for their effects on PTP1B mRNA in vitro. Cultured” for “Cultured”, “treated” for “treated as described herein”, “25” for “25, 50, 100 or 200”, “PTP1B” for “GCGR”, “inhibition (% Ihib) of PTP1B,” for “reduction in GCGR mRNA,”

[5] = tested on: PTP1B mRNA; test: Antisense inhibition of human PTP1B in HuVEC cells at 3 nM (Example 23, Table 84); type: cell-based
Experimental: Short antisense compounds targeted to a PTP1B nucleic acid were tested for their effects on PTP1B mRNA in vitro. Cultured HuVEC cells at a density of 5000 cells per well in a 96-well plate were treated as described herein with 3 nM of short antisense compound. After the treatment period, RNA was isolated from the cells and PTP1B mRNA levels were measured by quantitative real-time PCR, as described herein. PTP1B mRNA levels were adjusted according to total RNA content as measured by RIBOGREEN®. Results are presented as percent inhibition of PTP1B (% Inhib), relative to untreated control cells.

ISIS 398296: ApoB; GGTACATGGAAGTC 2-10-2 (6′S)-6′-methyl-Methyleneoxy BNA Unmodified Cytosines (antisense kG*kG*dT*dA*dC*dA*dT*dG*dG*dA*dA*dG*kT*kC)
ED50 [1]: 8.7 mg/kg

327161 (antisense eA*eG*e[5mC]*dT*dG*d[5mC]*dT*dG*dT*dA*d[5mC]*eA*eT*e[5mC]) [compound 327161]
percent reduction in GCGR mRNA ([2]; 25 nM): −19
percent reduction in GCGR mRNA ([2]; 50 nM): −33
percent reduction in GCGR mRNA ([2]; 100 nM): −55
percent reduction in GCGR mRNA ([2]; 200 nM): −54
percent reduction in GCGR mRNA ([3]; 25 nM): −36
percent reduction in GCGR mRNA ([3]; 50 nM): −30
percent reduction in GCGR mRNA ([3]; 100 nM): −33
percent reduction in GCGR mRNA ([3]; 200 nM): −64

404139 (antisense eG*eT*dG*d[5mC]*dA*d[5mC]*dA*d[5mC]*dA*dG*d[5mC]*dT*eG*eA) [compound 404139]
% Inhib (PTP1B mRNA) [4]: 45%
% Inhib (PTP1B mRNA) [5]: 80%

404138 (antisense e[5mC]*eT*d[5mC]*dA*dG*dT*dG*dT*dG*d[5mC]*dA*d[5mC]*eA*e[5mC]) [compound 404138]
% Inhib (PTP1B mRNA) [4]: 86%
% Inhib (PTP1B mRNA) [5]: 76%
